Reference: ChEMBL document CHEMBL1153630, “Structure-activity relationship (SAR) of parthenin analogues with pro-apoptotic activity: Development of novel anti-cancer leads” (Bioorg Med Chem Lett, 2009)
Activity calls are given as the source filed them. No cut-off for these calls is given here.

Tests used:
[1] = test system: HeLa; test: Cytotoxicity against human HeLa cells after 48 hrs by MTT assay; format: functional, cell-based
[2] = test system: HL-60; test: Induction of apoptosis in human HL60 cells assessed as DNA population at sub G0/G1 phase at 10 uM after 6 hrs by flow cytometry; format: functional
[3] = test system: HL-60; test: Cytotoxicity against human HL60 cells after 48 hrs by MTT assay; format: functional, cell-based; details: HL-60, 48 h
[4] = test system: HL-60; test: Inhibition of telomerase expression in human HL60 cells at 10 uM after 6 hrs by Western blot analysis; format: functional; details: HL-60, 6 h
[5] = target: DNA topoisomerase 2-alpha (Homo sapiens) (UniProt P11388); test: Inhibition of human topoisomerase 2-mediated relaxation of supercoiled plasmid DNA at 100 uM after 1 hr by electrophoresis analysis
[6] = target: DNA topoisomerase 2-alpha (Homo sapiens) (UniProt P11388); test: Inhibition of human topoisomerase 2-mediated relaxation of supercoiled plasmid DNA at 10 uM after 1 hr by electrophoresis analysis

DNA topoisomerase 2-alpha (Homo sapiens), sequence (P11388 whole entry): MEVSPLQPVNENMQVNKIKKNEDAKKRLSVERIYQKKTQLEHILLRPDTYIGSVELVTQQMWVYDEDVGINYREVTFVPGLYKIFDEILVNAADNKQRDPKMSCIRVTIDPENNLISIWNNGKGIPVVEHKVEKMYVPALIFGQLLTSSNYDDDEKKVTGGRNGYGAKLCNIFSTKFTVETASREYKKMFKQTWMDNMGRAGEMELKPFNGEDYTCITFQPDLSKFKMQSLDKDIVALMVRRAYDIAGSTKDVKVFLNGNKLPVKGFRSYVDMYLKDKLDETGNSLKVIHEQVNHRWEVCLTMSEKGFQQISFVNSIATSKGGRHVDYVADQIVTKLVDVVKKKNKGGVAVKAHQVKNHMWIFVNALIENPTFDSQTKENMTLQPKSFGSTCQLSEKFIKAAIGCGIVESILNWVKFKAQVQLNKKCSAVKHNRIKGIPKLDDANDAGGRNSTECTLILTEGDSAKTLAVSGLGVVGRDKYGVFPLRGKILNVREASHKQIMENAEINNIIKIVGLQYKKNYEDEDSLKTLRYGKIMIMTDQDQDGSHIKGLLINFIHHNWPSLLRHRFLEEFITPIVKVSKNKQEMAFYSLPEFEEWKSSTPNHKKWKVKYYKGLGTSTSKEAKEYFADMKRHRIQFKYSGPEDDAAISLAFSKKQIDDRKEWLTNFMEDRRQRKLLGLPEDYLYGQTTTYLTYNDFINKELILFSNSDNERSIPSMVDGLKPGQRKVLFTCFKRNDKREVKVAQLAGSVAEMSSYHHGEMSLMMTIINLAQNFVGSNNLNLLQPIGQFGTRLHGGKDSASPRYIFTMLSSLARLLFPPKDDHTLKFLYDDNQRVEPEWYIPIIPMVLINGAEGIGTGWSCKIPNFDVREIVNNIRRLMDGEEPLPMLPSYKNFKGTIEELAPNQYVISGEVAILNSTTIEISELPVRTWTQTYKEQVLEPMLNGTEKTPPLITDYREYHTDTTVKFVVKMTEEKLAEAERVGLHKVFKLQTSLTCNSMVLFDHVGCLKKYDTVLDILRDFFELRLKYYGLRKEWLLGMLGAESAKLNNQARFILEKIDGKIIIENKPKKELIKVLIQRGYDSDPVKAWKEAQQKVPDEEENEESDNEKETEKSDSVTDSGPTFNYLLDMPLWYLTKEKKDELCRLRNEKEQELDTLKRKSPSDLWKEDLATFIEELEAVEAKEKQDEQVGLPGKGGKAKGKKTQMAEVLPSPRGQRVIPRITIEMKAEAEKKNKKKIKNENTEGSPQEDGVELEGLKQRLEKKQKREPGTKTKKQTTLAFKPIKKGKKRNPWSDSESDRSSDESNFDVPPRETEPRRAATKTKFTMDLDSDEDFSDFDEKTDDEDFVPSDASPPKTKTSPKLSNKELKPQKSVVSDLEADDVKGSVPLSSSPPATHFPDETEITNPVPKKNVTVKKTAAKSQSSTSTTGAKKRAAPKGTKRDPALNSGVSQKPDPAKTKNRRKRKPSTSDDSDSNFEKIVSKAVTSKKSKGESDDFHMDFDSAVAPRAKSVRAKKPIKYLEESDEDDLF

`C=C1C(=O)O[C@@H]2[C@H]1CC[C@H](C)[C@]1(O)C=C(/C=C/CCC)C(=O)[C@@]21C` gave an IC50 [1] of 68 µM, an Activity [2] of 2.33% and an IC50 [3] of 42 µM.

With `C=C1C(=O)O[C@@H]2[C@H]1CC[C@H](C)[C@]1(O)C=CC(=O)O[C@@]21C` the IC50 [1] was 67 µM, the Activity [2] was 2.98% and the IC50 [3] was 18 µM.

Work on `C=C1C(=O)O[C@@H]2[C@H]1CC[C@H](C)[C@]13OC(Cc4ccco4)O[C@H]1/C(=C/Cc1ccco1)C(=O)[C@@]23C` (some centres undefined) yielded an IC50 [1] of 68 µM, an Activity [2] of 42.38% and an IC50 [3] of 5 µM.

Work on `C=C1C(=O)O[C@@H]2[C@H]1CC[C@H](C)[C@]13OCO[C@H]1C(CO)(CO)C(=O)[C@@]23C` yielded an IC50 [1] of 70 µM, an Activity [2] of 2.61% and an IC50 [3] of 17 µM.

`C=C1C(=O)O[C@@H]2[C@H]1CC[C@H](C)[C@]1(O)C=CC(=O)[C@@]21C` [PARTHENIN] gave an IC50 [1] of 60 µM, an Activity [2] of 13.69% and an IC50 [3] of 17 µM.

With `C=C1C(=O)O[C@@H]2[C@H]1CC[C@H](C)[C@]13OCO[C@H]1CC(=O)[C@@]23C` the IC50 [1] was 65 µM, the Activity [2] was 2.86% and the IC50 [3] was 49 µM.

Work on `C=C1C(=O)O[C@@H]2[C@H]1CC[C@H](C)[C@]1(O)C=C(/C=C/CCCCC)C(=O)[C@@]21C` yielded an IC50 [1] of 47 µM, an Activity [2] of 6.78% and an IC50 [3] of 24 µM.

In the case of `C=C1C(=O)O[C@@H]2[C@H]1CC[C@H](C)[C@]1(O)C=C(C(O)c3ccc4c(c3)OCO4)C(=O)[C@@]21C` (some centres undefined), the IC50 [1] is reported as 73 µM, the Activity [2] is reported as 2.13% and the IC50 [3] is reported as 18 µM.

Molecule `C[C@H]1CC[C@@H]2[C@@H](OC(=O)C2(Br)CBr)[C@]2(C)C(=O)C=C[C@@]12O` (some centres undefined) has an IC50 [1] of 67 µM, an Activity [2] of 1.93% and an IC50 [3] of 12 µM.

For `C=C1C(=O)O[C@@H]2[C@H]1CCC(C)=C1C=CC(=O)[C@]12C`, the IC50 [1] was 74 µM, the Activity [2] was 2.95% and the IC50 [3] was 16 µM.

`CC1C(=O)O[C@@H]2[C@H]1CC[C@H](C)[C@]1(O)C=CC(O)[C@@]21C` (some centres undefined) was tested, and the IC50 [1] was 64 µM, the Activity [2] was 1.43% and the IC50 [3] was 48 µM.

Molecule `C=C1C(=O)O[C@@H]2[C@H]1CC[C@H](C)[C@]1(O)[C@H](O)CC(=O)[C@@]21C` has an IC50 [1] of 68 µM, an Activity [2] of 1.17% and an IC50 [3] of 50 µM.

Molecule `C=C1C(=O)O[C@@H]2[C@H]1CC[C@H](C)[C@]13OC(CC)O[C@H]1CC(=O)[C@@]23C` (some centres undefined) has an IC50 [1] of 65 µM, an Activity [2] of 2.71% and an IC50 [3] of 38 µM.

Work on `C=C1C(=O)O[C@@H]2[C@H]1CC[C@H](C)[C@]13OC(c4ccc(OC)c(OC)c4)O[C@H]1/C(=C/c1ccc(OC)c(OC)c1)C(=O)[C@@]23C` (some centres undefined) yielded an IC50 [1] of 32 µM, an Activity [2] of 81.38% and an IC50 [3] of 6 µM.

Work on `C[C@H]1CC[C@H]2[C@H](COCCO)C(=O)O[C@H]2[C@]2(C)C(=O)C=C[C@@]12O` yielded an IC50 [1] of 76 µM, an Activity [2] of 2.05% and an IC50 [3] of 44 µM.

Molecule `C=C1C(=O)O[C@@H]2[C@H]1CC[C@H](C)[C@]13OC(/C=C/c4ccccc4)O[C@H]1/C(=C/C=C/c1ccccc1)C(=O)[C@@]23C` (some centres undefined) has an IC50 [1] of 25 µM, an Activity [2] of 82.97% and an IC50 [3] of 7 µM.

`C=C1C(=O)O[C@@H]2[C@H]1CC[C@H](C)[C@]1(O)[C@H](OC)CC(=O)[C@@]21C` gave an IC50 [1] of 68 µM, an Activity [2] of 1.95% and an IC50 [3] of 32 µM.

For `C=C1C(=O)O[C@@H]2[C@H]1CC[C@H](C)[C@]13OC(c4ccc5c(c4)OCO5)O[C@H]1/C(=C/c1ccc4c(c1)OCO4)C(=O)[C@@]23C` (some centres undefined), the IC50 [1] was 57 µM, the Activity [2] was 58.75% and the IC50 [3] was 5 µM.

In the case of `C=C1C(=O)O[C@@H]2[C@H]1CC[C@H](C)[C@]1(O)[C@H](OCCO)CC(=O)[C@@]21C`, the IC50 [1] is reported as 72 µM, the Activity [2] is reported as 1.81% and the IC50 [3] is reported as 44 µM.

In the case of `C=C1C(=O)O[C@@H]2[C@H]1CC[C@H](C)[C@]1(O)[C@@H](O)/C(=C/c3ccc(Cl)cc3)C(=O)[C@@]21C`, the IC50 [1] is reported as 44 µM, the Activity [2] is reported as 19.38% and the IC50 [3] is reported as 9 µM.

For `C=C1C(=O)O[C@@H]2[C@H]1CC[C@H](C)[C@]13OC(c4ccc(OC)cc4)O[C@H]1/C(=C/c1ccc(OC)cc1)C(=O)[C@@]23C` (some centres undefined), the IC50 [1] was 72 µM, the Activity [2] was 2.17% and the IC50 [3] was 46 µM.

`C=C1C(=O)O[C@@H]2[C@H]1CC[C@H](C)[C@]1(O)[C@H](OCC)CC(=O)[C@@]21C` showed an IC50 [1] of 76 µM, an Activity [2] of 4.51% and an IC50 [3] of 60 µM.

Molecule `C=C1C(=O)O[C@@H]2[C@H]1CC[C@H](C)[C@]1(O)C=C(C(O)/C=C/c3ccccc3)C(=O)[C@@]21C` (some centres undefined) has an IC50 [1] of 78 µM, an Activity [2] of 2.44% and an IC50 [3] of 46 µM.

With `C[C@H]1CC[C@@H]2[C@@H](OC(=O)C2(Br)CBr)[C@]2(C)C(=O)C(Br)C(Br)[C@@]12O` (some centres undefined) the IC50 [1] was 61 µM, the Activity [2] was 18.33% and the IC50 [3] was 8 µM.

For `C[C@H]1CC[C@@H]2[C@@H](OC(=O)C2(O)CBr)[C@]2(C)C(=O)C=C[C@@]12O` (some centres undefined), the IC50 [1] was 64 µM, the Activity [2] was 3.25% and the IC50 [3] was 12 µM.

Work on `C=C1C(=O)O[C@@H]2[C@H]1CC[C@H](C)[C@]1(O)C=C(CO)C(=O)[C@@]21C` yielded an IC50 [1] of 65 µM, an Activity [2] of 3.01% and an IC50 [3] of 16 µM.

Work on `C=C1C(=O)O[C@@H]2[C@H]1CC[C@H](C)[C@]13OC(C)O[C@H]1CC(=O)[C@@]23C` (some centres undefined) yielded an IC50 [1] of 70 µM, an Activity [2] of 1.9% and an IC50 [3] of 41 µM.

Molecule `C=C1C(=O)O[C@@H]2[C@H]1CC[C@H](C)[C@]1(O)C=C(C(O)c3ccc(Cl)cc3)C(=O)[C@@]21C` (some centres undefined) has an IC50 [1] of 70 µM, an Activity [2] of 2.76% and an IC50 [3] of 17 µM.

Molecule `C=C1C(=O)O[C@@H]2[C@H]1CC[C@H](C)[C@]1(O)C=C(C(O)c3ccccc3)C(=O)[C@@]21C` (some centres undefined) has an IC50 [1] of 58 µM, an Activity [2] of 13.89% and an IC50 [3] of 9 µM.

Molecule `C=C1C(=O)O[C@@H]2[C@H]1CC[C@H](C)[C@]1(O)[C@H](OCCC)CC(=O)[C@@]21C` has an IC50 [1] of 74 µM, an Activity [2] of 3.21% and an IC50 [3] of 18 µM.

For `C=C1C(=O)O[C@@H]2[C@H]1CC[C@H](C)[C@]1(O)[C@H](OCCCC)CC(=O)[C@@]21C`, the IC50 [1] was 70 µM, the Activity [2] was 1.9% and the IC50 [3] was 42 µM.

Work on `C=C1C(=O)O[C@@H]2[C@H]1CC[C@H](C)[C@]13OC(c4ccc(Cl)cc4)O[C@H]1/C(=C/c1ccc(Cl)cc1)C(=O)[C@@]23C` (some centres undefined) yielded an IC50 [1] of 12 µM, an inhibition at 10 µM [4] of 80% and an Activity [2] of 94.1%. The inhibition [5] was “Active”, the IC50 [3] was 3 µM and the inhibition [6] was “Active”.

`CC(=O)OC1C=C[C@@]2(O)[C@@H](C)CC[C@H]3C(C)C(=O)O[C@H]3[C@]12C` (some centres undefined) was tested, and the IC50 [1] was 74 µM, the Activity [2] was 0.82% and the IC50 [3] was 48 µM.

With `C=C1C(=O)O[C@@H]2[C@H]1CC[C@H](C)[C@]1(O)C=C(/C=C/CC)C(=O)[C@@]21C` the IC50 [1] was 73 µM, the Activity [2] was 1.6% and the IC50 [3] was 45 µM.

`C[C@H]1CC[C@H]2[C@H](COCCO)C(=O)O[C@H]2[C@]2(C)C(=O)C[C@@H](OCCO)[C@@]12O` was tested, and the IC50 [1] was 72 µM, the Activity [2] was 2.19% and the IC50 [3] was 55 µM.

`C[C@H]1CC[C@@H]2[C@@H](OC(=O)C2(Br)CBr)[C@]2(C)C(=O)C(Br)=C[C@@]12O` (some centres undefined) gave an IC50 [1] of 76 µM, an Activity [2] of 2.17% and an IC50 [3] of 13 µM.

For `C=C1C(=O)O[C@@H]2[C@H]1CC[C@H](C)[C@]13OC(c4ccccc4)O[C@H]1/C(=C/c1ccccc1)C(=O)[C@@]23C` (some centres undefined), the IC50 [1] was 31 µM, the Activity [2] was 69.28% and the IC50 [3] was 6 µM.
